Experimental data published in patent publication US12612409B2, “Pyrrolopyrimidines as CFTR potentiators” (Cystic Fibrosis Foundation, priority 2016, dated 2026).
pEC50: −log10 of the molar value.

Columns and labels:
G551 D patients = settings: cited from earlier work
[1] = system: F508del homozygote patients; settings: cited from earlier work
[2] = biological target: T1, CFTR in G551D/F508del primary CF hBE cells (Homo sapiens, UniProt P13569, G551D); assay: Ussing chamber electrophysiology assay of CFTR potentiation in G551D/F508del CF bronchial epithelial cells (35° C.); assay type: cell-based; settings: G551 D/F508del Ussing chamber assay at 35 degrees Celsius
T1 construct: Primary cystic fibrosis human bronchial epithelial (CF hBE) cells were expanded and cultured; endogenous in cells; host or cells: primary CF human bronchial epithelial cells, genotype G551D/F508del
Excerpt: • SHELXTL, Version 5.1, Bruker AXS, 1997. • PLATON, A. L. Spek, J. Appl. Cryst. 2003, 36, 7-13. • MERCURY, C. F. Macrae, P. R. Edington, P. McCabe, E. Pidcock, G. P. Shields, R. Taylor, M. Towler and J. van de Streek, J. Appl. Cryst. 39, 453-457, 2006. • OLEX2, Dolomanov, O. V.; Bourhis, L. J.; Gildea, R. J.; Howard, J. A. K.; Puschmann, H., (2009). J. Appl. Cryst., 42, 339-341. • R. W. W. Hooft et al. J. Appl. Cryst. (2008). 41. 96-103. • H. D. Flack, Acta Cryst. 1983, A39, 867-881. Using Chamber Electrophysiology Assay of CFTR Potentiation in CF Bronchial Epithelial Cells
Primary cystic fibrosis human bronchial epithelial (CF hBE) cells were expanded and cultured according to published methods (Neuberger et al., Ch. 4 of Cystic Fibrosis, Methods in Molecular Biology vol. 741, pp. 39-54 (2011)). Well-differentiated cells (>30 days at air/liquid interface) on Snapwell filters (Corning Costar, cat. no. 3801) were mounted in Ussing chambers (Physiologic Instruments, Inc., San Diego, CA). […] HEPES buffered physiological saline (composition (in mM): 137 NaCl, 4 KCl, 1 MgCl2, 1.8 CaCl2), 10 HEPES Na) was used in both apical and basolateral chambers. Chambers were bubbled with air to promote mixing and the voltage was clamped to zero. Amiloride (30 uM), forskolin (10 uM), test compound (4 increasing concentrations), and CFTRinh-172 (20 uM) were added sequentially with 20-25 minutes between additions. Short-circuit currents were acquired and analyzed using LabScribe2. Test compound responses were scaled relative to responses for DMSO (0%) and the maximal response of a positive control potentiator (100%).

[3] = biological target: T2, recombinant F508del V470 CFTR in Fischer rat thyroid (FRT) cells (Homo sapiens, UniProt P13569, DEL508-508); assay: FRT ion flux assay of F508del CFTR potentiation; assay type: cell-based; settings: FRT cells expressing F508del V470 CFTR, forskolin 20 uM, 27° C. pre-incubation
T2 construct: expressed in transfected cells
Outline: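 Potentiation read as YFP quench ~21 s after iodide buffer addition, as second/initial fluorescence ratio normalised between DMSO (0%) and reference potentiator (100%).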

[4] = biological target: T3, CFTR in F508del/F508del primary CF hBE cells (Homo sapiens, UniProt P13569, DEL508-508); assay: Ussing chamber electrophysiology assay of CFTR potentiation in F508del/F508del CF bronchial epithelial cells (27° C.); assay type: cell-based
T3 construct: Primary cystic fibrosis human bronchial epithelial (CF hBE) cells were expanded and cultured; endogenous in cells; host or cells: primary CF human bronchial epithelial cells, genotype F508del/F508del
Outline: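 Short-circuit current was recorded under zero-voltage clamp across primary CF bronchial epithelia cultured >30 days at air/liquid interface, bathed apically and basolaterally in HEPES-buffered saline. Sequential additions: amiloride (30 uM), forskolin (10 uM), compound at 4 increasing levels, CFTRinh-172 (20 uM). Responses normalised between DMSO (0%) and maximal positive-control potentiator (100%).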

T3 sequence (P13569 with tags, fused parts or gaps DEL508-508): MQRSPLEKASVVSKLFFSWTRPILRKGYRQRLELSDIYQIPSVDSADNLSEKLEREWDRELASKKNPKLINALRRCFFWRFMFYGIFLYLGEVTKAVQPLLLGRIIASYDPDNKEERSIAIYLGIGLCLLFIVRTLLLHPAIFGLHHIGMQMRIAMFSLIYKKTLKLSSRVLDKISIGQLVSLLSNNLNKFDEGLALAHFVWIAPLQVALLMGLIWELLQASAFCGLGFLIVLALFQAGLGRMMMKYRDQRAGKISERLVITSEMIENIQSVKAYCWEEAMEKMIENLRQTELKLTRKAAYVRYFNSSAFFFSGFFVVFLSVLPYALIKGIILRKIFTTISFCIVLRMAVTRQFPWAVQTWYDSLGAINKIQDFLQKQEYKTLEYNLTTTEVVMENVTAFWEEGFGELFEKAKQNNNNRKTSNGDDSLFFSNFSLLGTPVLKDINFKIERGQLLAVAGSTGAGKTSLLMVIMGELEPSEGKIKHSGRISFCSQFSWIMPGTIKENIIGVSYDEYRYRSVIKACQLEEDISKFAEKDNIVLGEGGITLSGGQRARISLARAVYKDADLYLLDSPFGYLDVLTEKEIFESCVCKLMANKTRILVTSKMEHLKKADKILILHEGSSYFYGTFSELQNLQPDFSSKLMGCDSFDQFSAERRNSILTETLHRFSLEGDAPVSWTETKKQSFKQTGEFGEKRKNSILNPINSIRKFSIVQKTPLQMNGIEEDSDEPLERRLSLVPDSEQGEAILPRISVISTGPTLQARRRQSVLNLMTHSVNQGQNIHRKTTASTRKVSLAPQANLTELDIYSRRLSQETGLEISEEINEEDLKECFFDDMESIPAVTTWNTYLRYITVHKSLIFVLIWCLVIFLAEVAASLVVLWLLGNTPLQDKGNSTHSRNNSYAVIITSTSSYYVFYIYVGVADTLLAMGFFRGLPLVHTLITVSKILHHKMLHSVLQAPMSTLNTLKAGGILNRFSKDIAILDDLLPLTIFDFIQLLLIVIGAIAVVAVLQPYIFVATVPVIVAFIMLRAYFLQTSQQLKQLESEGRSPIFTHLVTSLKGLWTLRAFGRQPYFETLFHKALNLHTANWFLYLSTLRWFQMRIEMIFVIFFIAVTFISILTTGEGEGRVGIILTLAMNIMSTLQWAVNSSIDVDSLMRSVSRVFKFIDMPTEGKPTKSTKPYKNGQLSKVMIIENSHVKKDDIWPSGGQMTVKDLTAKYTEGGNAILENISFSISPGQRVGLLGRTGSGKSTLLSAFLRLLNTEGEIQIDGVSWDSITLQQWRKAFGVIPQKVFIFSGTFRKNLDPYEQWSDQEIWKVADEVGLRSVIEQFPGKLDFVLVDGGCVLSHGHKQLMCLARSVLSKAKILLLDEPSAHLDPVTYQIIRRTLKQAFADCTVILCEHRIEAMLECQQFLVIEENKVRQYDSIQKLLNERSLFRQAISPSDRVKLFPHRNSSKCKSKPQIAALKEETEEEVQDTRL
T2 sequence (P13569 with tags, fused parts or gaps DEL508-508): as above
T1 sequence (P13569 whole entry F508del/G551D): as the sequence (P13569 with tags, fused parts or gaps DEL508-508) above, with G550D counted along it

Row | pEC50 [2] | pEC50 [3] | pEC50 [4] | SMILES | frequency of pulmonary exacerbations (G551 D patients) | lung function, percent predicted FEV1 increased (G551 D patients) | weight (G551 D patients) | improvement on monotherapy [1]
1 | – | – | – | CC(C)(C)c1cc(C(C)(C)C)c(NC(=O)c2c[nH]c3ccccc3c2=O)cc1O [Kalydeco, ivacaftor] | reduced the frequency of pulmonary exacerbations | 10-13% | allowed weight gain | did not lead to any appreciable improvement
2 | 6.08 | 7.87 | 7.54 | CCC(c1cn(-c2ccccc2F)nn1)n1cc(-c2cncnc2OC)c2c(N)ncnc21 (single isomer, unassigned; enantiomer 2) [Example 134, (+) 7-{1-[1-(2-Fluorophenyl)-1H-1,2,3-triazol-4-yl]propyl}-5-(4-methoxypyrimidin-5-yl)-7H-pyrrolo[2,3-d]pyrimidin-4-amine, enantiomer 2] | – | – | – | –
3 | 5.07 | 6.44 | 6.47 | CC[C@H](c1cn(-c2ccc(F)cc2F)nn1)n1cc(-c2cnc(C(F)(F)F)nc2)c2c(N)ncnc21 (single isomer, unassigned) [Example 162] | – | – | – | –
4 | 6.52 | 8.07 | 7.96 | CC[C@@H](c1cn(-c2ccc(F)cc2F)nn1)n1cc(-c2cnc(C(F)(F)F)nc2)c2c(N)ncnc21 (single isomer, unassigned) [Example 161] | – | – | – | –
